The values that follow come from paper PMC12498411, “Antidepressant-like Properties of a Selenium-Containing Pyridinium Salt Explored through In Vitro, In Vivo, and In Silico Approaches” (ACS Chemical Neuroscience, 2025).

This test has as its system male Swiss mice. The test can be described thus: Tail suspension test (TST). It is filed as in vivo, mouse. As to the method: A behavioral screening was conducted using the three salts to determine their potential antidepressant-like actions (n = 7–9 mice/group).
A dosage of 5 mg/kg (intragastric route, i.g., by gavage) was administered to all groups receiving the salts. […] The TST was conducted 30 min following drug administration, with the OFT being performed 4 min prior to the TST.
Following the selection of the most promising salt during screening (Compound 3B), an analysis of the compound’s time-response curve was conducted in the mouse TST. For this purpose, the animals were divided into five groups: (I) control (water; i.g.), (II) the group receiving compound 3B 15 min prior to TST, (III) the group receiving compound 3B 30 min before TST, (IV) the group receiving compound 3B 60 min before TST, and (V) the group receiving compound 3B 120 min before TST. The dosage of salt was standardized at 5 mg/kg (i.g). OFT was conducted 4 min prior to the TST.
After choosing a suitable preadministration time, the dose–response curve of the compound at this fixed time was analyzed. The animals were categorized into […]: I) a control group (administered water; i.g.) and groups II, III, IV and V) receiving compound 3B at doses of 0.5 mg/kg, 1 mg/kg, 2.5 mg/kg, and 5 mg/kg (i.g.), respectively. […] Thirty minutes postadministration, the animals underwent the TST. Four minutes prior to the TST, they underwent the OFT.
This test aims to assess depressive-like behavior and antidepressant-like action of therapies by measuring immobility. […] The test was conducted using a mouse suspension box made of wood, measuring 50 cm × 21 cm × 21 cm, designed to prevent any visual or physical interaction among the animals. A suspension bar was positioned atop the box, and the mouse’s tail was affixed to the bar using adhesive tape. The test duration was 6 min, during which the animal’s latency to the first immobility episode and the total duration of immobility (sec) were assessed.

Setting [1] is: salts 5 mg/kg i.g., fluoxetine 20 mg/kg i.p., 30 min before test.

Consider `Cc1ccc(C(=O)C[n+]2ccccc2C[Se]c2ccccc2)cc1` [Compound 3B, 1-(2-oxo-2-(p-tolyl)ethyl)-2-((phenylselanyl)methyl)pyridin-1-ium bromide], for which the “Minimum effective dose for antidepressant-like action” value (TST, i.g., 30 min) is listed as 1 mg/kg. In addition, under setting [1], the “TST latency time to first immobility episode, screening” value is reported as “significantly increased latency time” and the “TST total immobility time, screening” value is on record as “shorter total immobility times”. The “Cohen-D effect size in TST” value (screening, 5 mg/kg i.g., 30 min) is given as over 1.77.
